Literature values as cited in patent publication EP0514015A1, “Control of sex differentiation in fish” (MERCK & CO. INC., priority 1991, dated 1992).

Legend:
Oreochromis aureus = conditions: tilapia, broad range of doses, fed to 3 to 5-day old fry for a period of 22 days
Cyprinus carpio = conditions: carp, oral administration at 50ppm in feed from weeks 6 through 11 after hatching

| Compound | sex-reversing (Oreochromis aureus) | phenotypic males (Cyprinus carpio) |
| --- | --- | --- |
| C#C[C@]1(O)CC[C@H]2[C@@H]3CCC4=CC(=O)CC[C@]4(C)[C@H]3CC[C@@]21C [17-alpha-ethynyltestosterone] | effective | – |
| C[C@]12CCC(=O)C=C1CC[C@@H]1[C@@H]2CC[C@@]2(C)[C@H]1CC[C@]2(C)O [17-alpha-methyltestosterone] | effective | greater than 90% |
